Experimental data from patent EP4556005A1, “COMPOUND FOR TREATING FLAVIVIRUS INFECTIONS” (Leibniz-Institut für Virologie, priority 2023, dated 2025).

Columns and labels:
[1] = Cytotoxicity, cell viability by Resazurin assay; assay type: cell-based; conditions: human, JEG-3 human placental cells; naive JEG-3 cells, 24-well plates (8×10^4 cells/well), increasing amounts of inhibitor, viability read forty-height (48) hours later; Figure 3A; read-out: 50% cytotoxicity concentration (CC50)
Description: In a first experiment, the cytotoxicity of the UBA5 inhibitor DKM29-3 was determined. Naive JEG-3 human placental cells were seeded in 24-well plates (8×10^4 cells/well) and on the next day treated with increasing amounts of the UBA5 inhibitor DKM29-3.

ZIKV (PRVABC59 strain) = assay: Zika virus replication in infected JEG-3 cells, plaque-forming unit assay (PFU) on VeroE6 cells; assay type: cell-based; conditions: wild-type JEG-3 cells, MOI 0.01, 16 µM or 32 µM added after virus absorption, supernatants analysed forty-height (48) hours later; n=4; Mann-Whitney test p-value < 0.05
Description: Then, the effect of UBA5-inhibitor DKM29-3 on Zika virus replication was studied. Wild-type JEG-3 cells were seeded as described above and infected with ZIKV (PRVABC59 strain) at an MOI (Multiplicity of Infection) of 0.01 for 1h at 37°C. After virus absorption the cells monolayers were washed with PBS (Phosphate Buffer Saline), and cell culture media containing 16 µM or 32 µM of DKM29-3 were added to the cells. Forty-height hours later virus-containing supernatants were analyzed by plaque-forming unit assay (PFU) on VeroE6 cells (n=4; Mann-Whitney test p-value < 0.05).

Compound: COc1ccc(CNC(=O)CCl)cc1OC [DKM29-3, 2-chloro-N-(3,4-dimethoxybenzyl)acetamide]
- CC50 at 48 h [1]: 80.2 µM
- Zika virus replication (ZIKV (PRVABC59 strain)): significantly reduced
